From ChEMBL document CHEMBL1201862, “PubChem BioAssay data set” (2004)
Activity calls are given as the source filed them.

Key:
[1] = molecular target: T1, Coagulation factor XII (Homo sapiens, UniProt P00748); type: functional;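 also: activated factor XIIa alpha cleaving a fluorogenic AMC peptide substrate; inhibitor potency from loss of enzyme activity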
T1 sequence (P00748 whole entry): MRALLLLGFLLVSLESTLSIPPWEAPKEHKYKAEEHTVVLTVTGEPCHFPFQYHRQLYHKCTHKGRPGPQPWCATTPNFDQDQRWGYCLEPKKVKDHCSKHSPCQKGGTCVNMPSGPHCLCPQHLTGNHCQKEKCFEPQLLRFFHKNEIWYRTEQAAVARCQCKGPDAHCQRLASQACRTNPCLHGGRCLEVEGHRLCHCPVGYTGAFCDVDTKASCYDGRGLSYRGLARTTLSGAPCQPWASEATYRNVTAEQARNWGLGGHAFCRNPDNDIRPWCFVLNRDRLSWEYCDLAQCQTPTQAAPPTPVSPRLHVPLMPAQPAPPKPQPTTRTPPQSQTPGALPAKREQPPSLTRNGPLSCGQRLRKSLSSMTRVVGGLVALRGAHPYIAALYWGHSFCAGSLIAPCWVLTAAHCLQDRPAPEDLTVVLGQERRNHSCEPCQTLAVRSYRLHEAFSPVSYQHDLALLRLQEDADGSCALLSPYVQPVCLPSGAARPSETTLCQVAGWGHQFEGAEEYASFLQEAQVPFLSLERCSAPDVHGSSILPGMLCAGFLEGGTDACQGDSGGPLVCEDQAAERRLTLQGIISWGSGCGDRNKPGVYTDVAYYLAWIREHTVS

[2] = molecular target: Troponin, cardiac muscle (Homo sapiens, UniProt P19429+P45379+P63316); assay: Fluorescence-based biochemical high throughput dose response assay for activators of the calcium sensitivity of cardiac Regulated Thin Filaments (RTF). [Related pubchem assays (depositor defined):AID493008, AID493018, AID504382, AID504383]; type: protein-complex assay
[3] = molecular target: T2, G-protein coupled receptor 35 (Homo sapiens, UniProt Q9HC97); assay: SAR analysis of Agonists of the GPR35 Receptor using an Image-Based Assay - Set 4. [Related pubchem assays (depositor defined):AID2013, AID2026]; type: functional
T2 sequence (Q9HC97 whole entry): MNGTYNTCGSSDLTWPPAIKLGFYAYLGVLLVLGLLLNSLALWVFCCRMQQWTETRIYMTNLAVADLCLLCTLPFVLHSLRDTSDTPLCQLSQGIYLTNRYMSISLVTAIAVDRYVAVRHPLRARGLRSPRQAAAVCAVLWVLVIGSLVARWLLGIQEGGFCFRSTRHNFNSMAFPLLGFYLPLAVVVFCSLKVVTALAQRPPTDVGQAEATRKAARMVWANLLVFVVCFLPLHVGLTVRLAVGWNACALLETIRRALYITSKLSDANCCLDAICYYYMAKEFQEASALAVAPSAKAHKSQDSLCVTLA

[4] = molecular target: T3, Cannabinoid receptor 1 (Homo sapiens, UniProt P21554); assay: SAR analysis of agonists of the Cannabinoid Receptor 1 using an Image-Based Assay - Set 4. [Related pubchem assays (depositor defined):AID2013, AID2026]; type: functional
T3 sequence (P21554 whole entry): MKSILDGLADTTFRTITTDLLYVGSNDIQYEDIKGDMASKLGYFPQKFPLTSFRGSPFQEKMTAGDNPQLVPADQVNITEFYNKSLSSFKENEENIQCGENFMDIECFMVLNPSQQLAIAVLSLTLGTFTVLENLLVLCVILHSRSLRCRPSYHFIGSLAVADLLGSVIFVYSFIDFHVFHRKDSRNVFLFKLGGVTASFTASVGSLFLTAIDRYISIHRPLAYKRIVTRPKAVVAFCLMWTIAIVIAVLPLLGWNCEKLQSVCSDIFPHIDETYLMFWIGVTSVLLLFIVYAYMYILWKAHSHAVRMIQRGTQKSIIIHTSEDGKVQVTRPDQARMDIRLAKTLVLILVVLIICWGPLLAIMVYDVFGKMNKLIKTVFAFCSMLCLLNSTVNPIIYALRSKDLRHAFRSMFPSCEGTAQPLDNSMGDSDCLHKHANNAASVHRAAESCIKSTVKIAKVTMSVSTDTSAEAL

[5] = molecular target: T2, G-protein coupled receptor 35; assay: SAR analysis of Antagonists of the GPR35 Receptor using an Image-Based Assay - Set 6. [Related pubchem assays (depositor defined):AID2013, AID2026]; type: functional
[6] = molecular target: T3, Cannabinoid receptor 1; assay: SAR analysis of antagonists of the Cannabinoid Receptor 1 using an Image-Based Assay - Set 4. [Related pubchem assays (depositor defined):AID2013, AID2026]; type: functional
[7] = molecular target: G-protein coupled receptor 55 (Homo sapiens, UniProt Q9Y2T6); assay: SAR Analysis of Selective Antagonists of GPR55 using an Image-Based Assay - Set 4. [Related pubchem assays (depositor defined):AID2013, AID2026]; type: functional;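 also: antagonism of response to 5 µM lysophosphatidylinositol agonist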
G-protein coupled receptor 55, sequence (Q9Y2T6 whole entry): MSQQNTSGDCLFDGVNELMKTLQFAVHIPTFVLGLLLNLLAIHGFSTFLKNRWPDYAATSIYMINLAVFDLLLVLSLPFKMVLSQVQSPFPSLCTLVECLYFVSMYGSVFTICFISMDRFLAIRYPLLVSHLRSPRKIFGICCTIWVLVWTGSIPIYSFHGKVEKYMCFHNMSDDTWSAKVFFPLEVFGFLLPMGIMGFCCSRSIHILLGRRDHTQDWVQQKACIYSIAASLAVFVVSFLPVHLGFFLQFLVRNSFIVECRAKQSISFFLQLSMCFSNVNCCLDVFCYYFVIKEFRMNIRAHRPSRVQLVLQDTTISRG

[8] = molecular target: T4, Cannabinoid receptor 2 (Homo sapiens, UniProt P34972); assay: SAR analysis of antagonists of the Cannabinoid Receptor 2 using an Image-Based Assay - Set 3. [Related pubchem assays (depositor defined):AID2013, AID2026]; type: functional
T4 sequence (P34972 whole entry): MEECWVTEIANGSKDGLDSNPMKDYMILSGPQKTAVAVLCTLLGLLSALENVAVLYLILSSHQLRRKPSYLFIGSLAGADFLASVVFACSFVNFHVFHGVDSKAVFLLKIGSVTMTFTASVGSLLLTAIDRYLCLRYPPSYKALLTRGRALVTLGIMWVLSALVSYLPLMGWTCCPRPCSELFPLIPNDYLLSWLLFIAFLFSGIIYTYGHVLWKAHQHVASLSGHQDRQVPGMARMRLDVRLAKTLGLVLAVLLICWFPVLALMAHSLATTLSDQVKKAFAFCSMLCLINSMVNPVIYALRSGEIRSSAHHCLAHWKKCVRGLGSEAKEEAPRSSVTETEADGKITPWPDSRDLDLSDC

[9] = molecular target: T4, Cannabinoid receptor 2; assay: SAR analysis of agonists of the Cannabinoid Receptor 2 using an Image-Based Assay - Set 3. [Related pubchem assays (depositor defined):AID2013, AID2026]; type: functional
[10] = molecular target: T5, Bcl-2-related protein A1 (Mus musculus, UniProt Q07440); type: functional;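 also: confirmatory dose–response counterscreen on Bfl-1, used to check hits from a UBC13 polyubiquitin inhibitor campaign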
T5 sequence (Q07440 whole entry): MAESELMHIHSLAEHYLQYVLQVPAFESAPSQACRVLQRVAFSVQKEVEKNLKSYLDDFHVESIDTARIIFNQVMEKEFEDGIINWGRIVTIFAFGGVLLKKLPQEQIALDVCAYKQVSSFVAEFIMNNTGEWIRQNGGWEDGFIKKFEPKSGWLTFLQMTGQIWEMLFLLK

[11] = molecular target: T6, Ubiquitin-conjugating enzyme E2 N (Homo sapiens, UniProt P61088); type: functional
T6 sequence (P61088 whole entry): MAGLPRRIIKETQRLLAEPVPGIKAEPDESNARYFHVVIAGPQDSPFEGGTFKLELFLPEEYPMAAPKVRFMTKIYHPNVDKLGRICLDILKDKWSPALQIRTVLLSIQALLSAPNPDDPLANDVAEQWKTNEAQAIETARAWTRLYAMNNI

[12] = molecular target: T6, Ubiquitin-conjugating enzyme E2 N; type: functional; remark: listed apart in the source
[13] = molecular target: Hexokinase (Trypanosoma brucei, UniProt Q38C41); assay: Confirmation assay for inhibitors of Trypanosoma brucei hexokinase 1-Analogue-first series. [Related pubchem assays (depositor defined):AID1430, AID1632, AID2516, AID2560, AID2579, AID2600, AID449725, AID492951]; type: functional
Hexokinase, sequence (Q38C41 whole entry): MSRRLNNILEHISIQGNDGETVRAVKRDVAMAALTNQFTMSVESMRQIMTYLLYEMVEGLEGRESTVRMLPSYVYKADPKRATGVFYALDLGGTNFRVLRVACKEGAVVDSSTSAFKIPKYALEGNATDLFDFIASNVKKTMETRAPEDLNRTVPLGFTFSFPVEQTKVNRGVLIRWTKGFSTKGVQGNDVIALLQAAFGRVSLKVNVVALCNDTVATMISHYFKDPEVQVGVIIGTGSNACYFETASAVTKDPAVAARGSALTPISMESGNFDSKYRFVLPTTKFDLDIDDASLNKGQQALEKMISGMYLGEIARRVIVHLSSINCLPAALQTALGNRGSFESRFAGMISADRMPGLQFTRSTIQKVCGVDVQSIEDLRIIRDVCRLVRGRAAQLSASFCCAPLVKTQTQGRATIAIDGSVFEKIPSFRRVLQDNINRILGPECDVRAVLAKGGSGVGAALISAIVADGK

Compound	EC50 [3]	EC50 [4]	IC50 [5]	IC50 [6]	IC50 [7]	IC50 [8]	EC50 [9]	other results
CC12CCC(C(=O)NC(c3ccccc3)c3ccccc3)(OC1=O)C2(C)C (stereo not given)	–	–	–	–	–	–	–	IC50 [1]: > 50 µM (inactive)
COc1ccc(S(=O)(=O)N2CN(Cc3ccco3)c3nc4ccccc4nc32)cc1	–	–	–	–	–	–	–	EC50 [2]: > 71.5 µM (inactive)
Cc1nnc(-c2cccc(Br)c2)c2cn(-c3ccccc3)nc12	> 32 µM (inactive)	> 32 µM (inactive)	> 32 µM (inactive)	1.68 µM (active)	3.95 µM (active)	10.4 µM (inactive)	> 32 µM (inactive)	–
O=C(CCNC(=O)Cn1ccc2ccccc2c1=O)NCCN1CCN(c2cccc(Cl)c2)CC1	–	–	–	–	–	–	–	IC50 [10]: > 20 µM (inactive); IC50 [11]: 8.08 µM (active); IC50 [12]: 4.45 µM (active)
Cc1ccc2nc3c(cc(C(=O)NC4CCCC4)c(=N)n3C3CCCC3)c(=O)n2c1	> 32 µM (inactive)	> 32 µM (inactive)	> 32 µM (inactive)	24.9 µM (inactive)	8.18 µM (active)	> 32 µM (inactive)	> 32 µM (inactive)	–
COc1ccc(C(=O)Nc2ccc(Cl)cc2C(=O)O)cc1	–	–	–	–	–	–	–	IC50 [13]: > 25 µM (inactive)
